What was measured:
THP1 cells = assay: THP1-Dual cells, cell viability (CellTiter-Glo); assay type: cell-based
Method: (§1) Evaluation of active cGAS inhibitors in THP1 cells (Table 3). Cellular activity of all compounds (in Table 3) was determined using THP1-Dual™ cells as described (Lama et. al., 2019). THP1-Dual™ cells (Invivogen) (50000 cells in 100 μl media) were seeded into each well of a 96-well plate and treated with compounds at various dilution for 4 hours. Subsequently, cells were transfected with DNA (2 ug/ml) and lipofectamine and incubate the cells were incubated overnight. Ifnb expression was measured in cell supernatant using Quantiluc, nfkb expression was determined using Quantiblue, and cell viability using Promega® CellTiter-Glo®.

IFNB = assay: THP1-Dual cells transfected with DNA, Ifnb expression (Quantiluc); assay type: cell-based; conditions: Homo sapiens; for inhibition at 10 µM: THP-1, 10 μM; for inhibition at 30 µM: THP-1, 30 μM
Method: as §1

NFkB-SEAP = assay: THP1-Dual cells transfected with DNA, nfkb expression (Quantiblue); assay type: cell-based; conditions: Homo sapiens; for inhibition at 10 µM: THP-1, 10 μM; for inhibition at 30 µM: THP-1, 30 μM
Method: as §1

h-cGAS = h-cGAS (Homo sapiens, UniProt Q8N884); assay: Cell-free human cGAS enzyme inhibition assay (ATP depletion, Kinase-Glo Max); assay type: biochemical; conditions: 3 h; for inhibition at 1 µM: read-out: h-cGAS, conc. 1 μM; for inhibition at 10 µM: read-out: h-cGAS, conc. 10 μM
Method: (§2) Cell-free mouse and human cGAS enzyme inhibition assay (Table 2). Activity of all compounds (in Table 1) against m-cGAS (30 nM) and or h-cGAS, (100 nM) was determined by measuring the conversion of ATP and GTP (100 μM each) to cGAMP in the presence of dsDNA (5 ug/mL) in a reaction buffer composed of Tris-HCl (20 mM, pH7.4), NaCl (150 mM), MnCl2 (0.2 mM, h-cGAS) or MgCl2 (5 mM, m-cGAS) and Tween-20 (0.01%), and the remaining ATP concentration using Kinase-Glo®Max Luminescent Kinase Assay (Promega, Madison, WI), as described (Lama, et. al., 2019). Briefly, 10 μl of a master mix of 0.4 mM ATP, 0.4 mM GTP, 0.02 mg/mL dsDNA in the reaction buffer supplemented with 2 mM DTT was added to reaction wells containing TDI-6570 or TDI-8246 (2× of the desired concentration) in the same buffer ([…]) using a Thermo 8-channel Multidrop Combi dispenser. Next, 10 μl of a 4×m-cGAS (0.120 μM) or h-cGAS (0.4 μM) solution in the reaction buffer supplemented with 2 mM DTT was added to appropriate wells. Similar sets of reactions without cGAS or the inhibitor was set by adding the buffer alone. The reactions with the plates sealed were incubated at 37° C. (1 hour for m-cGAS and 3 hours for h-cGAS) and stopped by addition of 40 μl of the Kinase-Glo®Max. The luminescence was recorded in relative light units (RLUs) using a Biotek Synergy H1 Hybrid plate reader (BioTek, Winooski, VT). […] All reactions were run in triplicates and calculated using GraphPad Prism 9. The values represent mean IC50±S.D.

m-cGAS = m-cGAS (Mus musculus, UniProt Q8C6L5); assay: Cell-free mouse cGAS enzyme inhibition assay (ATP depletion, Kinase-Glo Max); assay type: biochemical; conditions: 1 h; for inhibition at 10 µM: read-out: m-cGAS, conc. 10 μM; for inhibition at 1 µM: read-out: m-cGAS, conc. 1 μM
Method: as §2

Chain of m-cGAS (Q8C6L5 whole entry): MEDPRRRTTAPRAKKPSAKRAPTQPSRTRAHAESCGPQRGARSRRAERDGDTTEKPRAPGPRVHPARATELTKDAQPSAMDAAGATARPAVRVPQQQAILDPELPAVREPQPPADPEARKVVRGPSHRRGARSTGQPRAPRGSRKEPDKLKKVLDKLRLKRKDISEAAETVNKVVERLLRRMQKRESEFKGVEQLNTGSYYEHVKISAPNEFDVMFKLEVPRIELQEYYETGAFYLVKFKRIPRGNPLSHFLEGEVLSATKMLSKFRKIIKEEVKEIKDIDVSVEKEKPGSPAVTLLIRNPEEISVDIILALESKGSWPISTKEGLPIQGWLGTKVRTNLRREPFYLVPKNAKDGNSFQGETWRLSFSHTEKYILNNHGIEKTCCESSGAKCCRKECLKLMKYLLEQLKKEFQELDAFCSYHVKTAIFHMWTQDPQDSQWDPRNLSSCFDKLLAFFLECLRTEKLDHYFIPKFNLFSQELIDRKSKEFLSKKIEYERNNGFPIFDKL
Chain of h-cGAS (Q8N884 whole entry): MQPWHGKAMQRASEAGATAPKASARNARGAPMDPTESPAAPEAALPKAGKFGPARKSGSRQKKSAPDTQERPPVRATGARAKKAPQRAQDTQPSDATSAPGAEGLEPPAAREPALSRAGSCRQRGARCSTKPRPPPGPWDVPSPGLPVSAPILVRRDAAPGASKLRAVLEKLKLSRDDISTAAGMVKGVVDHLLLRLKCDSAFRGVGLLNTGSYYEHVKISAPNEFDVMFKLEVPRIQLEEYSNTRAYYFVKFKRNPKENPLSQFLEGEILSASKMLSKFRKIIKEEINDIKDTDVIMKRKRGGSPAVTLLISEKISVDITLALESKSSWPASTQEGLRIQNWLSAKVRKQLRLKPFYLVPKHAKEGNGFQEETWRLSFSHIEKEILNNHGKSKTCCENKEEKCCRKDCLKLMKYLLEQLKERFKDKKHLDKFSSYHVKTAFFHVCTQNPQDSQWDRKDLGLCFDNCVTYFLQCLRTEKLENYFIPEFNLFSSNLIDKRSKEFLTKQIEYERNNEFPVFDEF

Row | inhibition at 1 µM (h-cGAS) | inhibition at 10 µM (h-cGAS) | inhibition at 10 µM (m-cGAS) | inhibition at 1 µM (m-cGAS) | Structure (SMILES) | Cell viability 10 μM (THP1 cells) | Cell viability 30 μM (THP1 cells) | inhibition at 10 µM (IFNB) | inhibition at 30 µM (IFNB) | inhibition at 10 µM (NFkB-SEAP) | inhibition at 30 µM (NFkB-SEAP)
1 | 50 to 74% | 75 to 100% | 0 to 24% | – | Cn1c2c(c3c(-c4cncnc4)cc(Cl)c(Cl)c31)CN(C(=O)CN)CC2 [Compound 8] | +++ (+, ++, and +++ mean the compound respectively shows 25-49%; 50-74%; or 75-100% viability to cells) | − (Cell viability <24%, in THP1 cells is expressed as “−”) | 50 to 74% | 75 to 100% | 25 to 49% | 50 to 74%
2 | 25 to 49% | 75 to 100% | 50 to 74% | 0 to 24% | NCC(=O)N1CCc2c(sc3c(Cl)c(Cl)cc(-c4nccs4)c23)C1 [Compound 84] | +++ (+, ++, and +++ mean the compound respectively shows 25-49%; 50-74%; or 75-100% viability to cells) | − (Cell viability <24%, in THP1 cells is expressed as “−”) | 25 to 49% | 75 to 100% | < 24% | 50 to 74%
3 | 25 to 49% | 75 to 100% | 0 to 24% | – | Cn1c2c(c3c(-c4ccc(N)nc4)cc(Cl)c(Cl)c31)CN(C(=O)C1CCCN1)CC2 (stereo not shown) [Compound 17] | +++ (+, ++, and +++ mean the compound respectively shows 25-49%; 50-74%; or 75-100% viability to cells) | ++ (+, ++, and +++ mean the compound respectively shows 25-49%; 50-74%; or 75-100% viability to cells) | 25 to 49% | 75 to 100% | 25 to 49% | 75 to 100%
4 | 0 to 24% | 75 to 100% | 75 to 100% | – | Cn1c2c(c3c(O)cc(Cl)c(F)c31)CN(C(=O)CO)CC2 [Compound 1, 1-(7-chloro-6-fluoro-9-hydroxy-5-methyl-3,4-dihydro-1H-pyrido[4,3-b]indol-2-yl)-2-hydroxy-ethanone] | +++ (+, ++, and +++ mean the compound respectively shows 25-49%; 50-74%; or 75-100% viability to cells) | +++ (+, ++, and +++ mean the compound respectively shows 25-49%; 50-74%; or 75-100% viability to cells) | < 24% | < 24% | < 24% | < 24%
5 | – | 25 to 49% | 75 to 100% | – | O=C(CO)N1CCc2oc3c(Cl)c(Cl)ccc3c2C1 [Compound 21] | – | +++ (+, ++, and +++ mean the compound respectively shows 25-49%; 50-74%; or 75-100% viability to cells) | – | < 24% | – | < 24%
6 | 50 to 74% | 75 to 100% | 0 to 24% | – | CN1c2c(Cl)c(Cl)cc(-c3cncnc3)c2C2CN(C(=O)CN)CCC21 (stereo not shown) [Compound 9] | +++ (+, ++, and +++ mean the compound respectively shows 25-49%; 50-74%; or 75-100% viability to cells) | +++ (+, ++, and +++ mean the compound respectively shows 25-49%; 50-74%; or 75-100% viability to cells) | < 24% | < 24% | < 24% | < 24%
7 | – | 75 to 100% | 0 to 24% | – | Cn1cc(-c2cc(Cl)c(Cl)c3c2c2c(n3C)CCN(C(=O)CNC(=O)OC(C)(C)C)C2)cn1 [Compound 10] | +++ (+, ++, and +++ mean the compound respectively shows 25-49%; 50-74%; or 75-100% viability to cells) | +++ (+, ++, and +++ mean the compound respectively shows 25-49%; 50-74%; or 75-100% viability to cells) | < 24% | 75 to 100% | < 24% | 50 to 74%
8 | 0 to 24% | 50 to 74% | 75 to 100% | 25 to 49% | NCC(=O)N1CCc2c(sc3c(Cl)c(Cl)cc(-c4cncs4)c23)C1 [Compound 87] | − (Cell viability <24%, in THP1 cells is expressed as “−”) | − (Cell viability <24%, in THP1 cells is expressed as “−”) | 75 to 100% | 75 to 100% | 50 to 74% | 75 to 100%
9 | 0 to 24% | 50 to 74% | 50 to 74% | 0 to 24% | Cn1cnc(-c2cc(Cl)c(Cl)c3sc4c(c23)CCN(C(=O)CN)C4)c1 [Compound 93] | +++ (+, ++, and +++ mean the compound respectively shows 25-49%; 50-74%; or 75-100% viability to cells) | − (Cell viability <24%, in THP1 cells is expressed as “−”) | < 24% | 75 to 100% | < 24% | 50 to 74%
10 | 25 to 49% | 75 to 100% | 0 to 24% | – | CC(O)C(=O)N1CCc2c(c3c(-c4ccn(C)n4)cc(Cl)c(Cl)c3n2C)C1 (stereo not shown) [Compound 4] | +++ (+, ++, and +++ mean the compound respectively shows 25-49%; 50-74%; or 75-100% viability to cells) | +++ (+, ++, and +++ mean the compound respectively shows 25-49%; 50-74%; or 75-100% viability to cells) | < 24% | 50 to 74% | < 24% | 25 to 49%
11 | 0 to 24% | 50 to 74% | 75 to 100% | 25 to 49% | NCC(=O)N1CCc2c(sc3c(Cl)c(Cl)cc(-c4cccnc4)c23)C1 [Compound 78] | + (+, ++, and +++ mean the compound respectively shows 25-49%; 50-74%; or 75-100% viability to cells) | − (Cell viability <24%, in THP1 cells is expressed as “−”) | 75 to 100% | 75 to 100% | 50 to 74% | 75 to 100%
12 | – | 25 to 49% | 75 to 100% | 25 to 49% | Cn1cc(-c2cc(Cl)c(Cl)c3sc4c(c23)CCN(C(=O)CO)C4)cn1 [Compound 62] | +++ (+, ++, and +++ mean the compound respectively shows 25-49%; 50-74%; or 75-100% viability to cells) | – | 50 to 74% | – | < 24% | –
13 | 0 to 24% | 50 to 74% | 50 to 74% | 25 to 49% | NCC(=O)N1CCc2c(sc3c(Cl)c(Cl)cc(-c4cnccn4)c23)C1 [Compound 90] | +++ (+, ++, and +++ mean the compound respectively shows 25-49%; 50-74%; or 75-100% viability to cells) | − (Cell viability <24%, in THP1 cells is expressed as “−”) | 25 to 49% | 50 to 74% | 25 to 49% | 75 to 100%
14 | 0 to 24% | 50 to 74% | 25 to 49% | 0 to 24% | NCC(=O)N1CCc2c(sc3c(Cl)c(Cl)cc(-c4ccccn4)c23)C1 [Compound 86] | +++ (+, ++, and +++ mean the compound respectively shows 25-49%; 50-74%; or 75-100% viability to cells) | − (Cell viability <24%, in THP1 cells is expressed as “−”) | < 24% | 75 to 100% | < 24% | 50 to 74%
15 | – | 25 to 49% | 50 to 74% | – | NCC(=O)N1CCc2c(sc3c(Cl)c(Cl)cc(-n4ccnc4)c23)C1 [Compound 97] | +++ (+, ++, and +++ mean the compound respectively shows 25-49%; 50-74%; or 75-100% viability to cells) | +++ (+, ++, and +++ mean the compound respectively shows 25-49%; 50-74%; or 75-100% viability to cells) | 50 to 74% | 75 to 100% | 25 to 49% | 75 to 100%
16 | 25 to 49% | 50 to 74% | 50 to 74% | 0 to 24% | O=C(CO)N1CCc2oc3c(Cl)c(Cl)cc(-c4cncnc4)c3c2C1 [Compound 25] | +++ (+, ++, and +++ mean the compound respectively shows 25-49%; 50-74%; or 75-100% viability to cells) | – | – | < 24% | < 24% | –

From patent US20250163052A1, “cGAS INHIBITORS AND USES THEREOF” (Cornell University, priority 2022, published 2025)
